Test results reported in PMC9130233, “An inhibitor of RORγ for chronic pulmonary obstructive disease treatment” (Scientific Reports, 2022).
Read-outs that look alike come from different tables or passages of the source.

How the values were obtained:
mouse RORγ LBD = molecular target: T1, mouse RORγ LBD (Mus musculus, UniProt P51450); experiment: RORγt-LBD co-activator ligand binding TR-FRET assay, mouse; details: n = 6
T1 construct: RORγt-LBD region 264-516aa; made in house
Text: To identify small molecule RORγ inhibitors, we conducted in vitro screening using a TR-FRET binding assay to determine the inhibition of RORγ with a series of different compounds. With extensive effort and from hit identification to lead optimization, PCCR-1 was identified[29] (Fig. 1A). Based on the homology of the ligand binding domains (LBD) between different ROR isoforms (hRORα, hRORβ and hRORγ), slight variations have been observed in the LBD regions which possibly lead to differences in competitive binding between the isoforms (Fig. 1B). Simultaneous binding of a tracer and antibody results in an increase in fluorescence resonance energy transfer (FRET), which decreases with displacement of the tracer upon inhibitor binding.
The human and mouse RORγt cDNA clones were obtained from OriGene (MD USA). […] The next day, plate was read on Infinite F500 reader (Magellan Tecan Switzerland). […] The percent activity of each dilution was determined as the ratio of background corrected signal to the background corrected signal of wells receiving only DMSO. IC50 values were determined by fitting percent inhibition data in GraphPad Prism (version-5.01) software.

[1] = Toxicokinetics (blood), 14-day inhalation study in Sprague Dawley rats; assay type: in vivo, rat; details: for half-life / AUC(0-t) / Cmax / Tmax: inhaled or intranasal; for half-life / AUC(0-t) / Cmax: inhalation; for AUC(0-t): read-out: AUC0-tlast, mean (SE); for Cmax: read-out: Cmax, mean (SE)
Procedure: Rats were exposed to PCCR-1 aerosols at 3.4, 10.8 and 32.1 mg/kg/day (delivered dose) for 60 min daily for 14 days using a snout only exposure technique via a modular stainless steel flow past inhalation chamber at indicated doses as mentioned in Table 3. No treatment-related findings noted, including myeloid:erythroid (M:E) ratios in any dose levels except minimal changes in the reticulocytes and adrenal glands.
The TK assessment was done by measuring the concentrations of PCCR-1 in blood.
The toxicology study was done in SD (Sprague Dawley) rats that were exposed to PCCR-1 aerosol for 60 min daily at 3.4, 10.8 and 32.1 mg/kg/day (delivered dose) for 14 days using a snout only exposure technique via a modular stainless steel flow past inhalation chamber. A 60% w/w blend of PCCR-1 in Lactose LH201 was prepared by adding the appropriate amount of PCCR-1 to the appropriate amount of lactose. The estimated delivered doses were derived based on analytical aerosol concentration, and respiratory minute volume calculated based on body weight, exposure duration, and animal body weight (Supplementary section B).

[2] = both sexes, Sprague Dawley, rat, blood, 10.8 mg/kg/day, SD rat blood, 10.8 mg/kg/day, Day 1, Mean
[3] = both sexes, Sprague-Dawley, rat, blood, 3.4 mg/kg/day, SD rat blood, 3.4 mg/kg/day, Day 1, Mean
[4] = both sexes, Sprague-Dawley, rat, blood, 3.4 mg/kg/day, SD rat blood, 3.4 mg/kg/day, Day 14, Mean
[5] = both sexes, Sprague-Dawley, rat, in vivo, 32.1 mg/kg/day, SD rat blood, 32.1 mg/kg/day, Day 1, Mean
[6] = both sexes, Sprague-Dawley, rat, in vivo, 32.1 mg/kg/day, SD rat blood, 32.1 mg/kg/day, Day 14, Mean
[7] = both sexes, Sprague-Dawley, rat, whole blood, 10.8 mg/kg/day, SD rat blood, 10.8 mg/kg/day, Day 14, Mean
[8] = female, Sprague-Dawley, rat, blood, 3.4 mg/kg/day, SD rat blood, 3.4 mg/kg/day, Day 1, Female
[9] = female, Sprague-Dawley, rat, blood, 3.4 mg/kg/day, SD rat blood, 3.4 mg/kg/day, Day 14, Female
[10] = female, Sprague-Dawley, rat, blood, 10.8 mg/kg/day, SD rat blood, 10.8 mg/kg/day, Day 1, Female
[11] = female, Sprague-Dawley, rat, in vivo, 32.1 mg/kg/day, SD rat blood, 32.1 mg/kg/day, Day 1, Female
[12] = female, Sprague-Dawley, rat, in vivo, 32.1 mg/kg/day, SD rat blood, 32.1 mg/kg/day, Day 14, Female
[13] = female, Sprague-Dawley, rat, whole blood, 10.8 mg/kg/day, SD rat blood, 10.8 mg/kg/day, Day 14, Female
[14] = male, Sprague Dawley, rat, blood, 10.8 mg/kg/day, SD rat blood, 10.8 mg/kg/day, Day 1, Male
[15] = male, Sprague-Dawley, rat, blood, 3.4 mg/kg/day, SD rat blood, 3.4 mg/kg/day, Day 1, Male
[16] = male, Sprague-Dawley, rat, blood, 3.4 mg/kg/day, SD rat blood, 3.4 mg/kg/day, Day 14, Male
[17] = male, Sprague-Dawley, rat, in vivo, 32.1 mg/kg/day, SD rat blood, 32.1 mg/kg/day, Day 1, Male
[18] = male, Sprague-Dawley, rat, in vivo, 32.1 mg/kg/day, SD rat blood, 32.1 mg/kg/day, Day 14, Male
[19] = male, Sprague-Dawley, rat, whole blood, 10.8 mg/kg/day, SD rat blood, 10.8 mg/kg/day, Day 14, Male
[20] = rat blood, mid and high dose levels

T1 sequence (P51450 264-516): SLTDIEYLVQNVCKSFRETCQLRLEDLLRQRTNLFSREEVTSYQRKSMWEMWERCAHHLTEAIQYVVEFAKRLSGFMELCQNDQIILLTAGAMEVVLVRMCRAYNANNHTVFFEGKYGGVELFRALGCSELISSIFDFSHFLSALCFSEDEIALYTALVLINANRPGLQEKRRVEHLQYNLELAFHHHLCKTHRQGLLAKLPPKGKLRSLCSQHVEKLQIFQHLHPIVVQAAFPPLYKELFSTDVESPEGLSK

Compound: CCn1c(C(C)(C)Oc2ccc(F)cc2F)nc2cc(NC(=O)Cc3ccc(S(=O)(=O)CC)cc3)ccc21 [PCCR-1]
- IC50 (mouse RORγ LBD): 778 nM
- half-life ([1]; Sprague-Dawley, in vivo, SD rat blood, 32.1 mg/kg/day, Day 1, Female): 414 min
- half-life ([1]; Sprague-Dawley, in vivo, SD rat blood, 32.1 mg/kg/day, Day 1, Male): 408 min
- AUC(0-t) [1, 2]: 5090 ng·h/mL
- Cmax [1, 2]: 457 ng/mL
- Tmax ([1]; both sexes, Sprague Dawley, rat, blood, 10.8 mg/kg/day, from start of inhalation dosing, SD rat blood, 10.8 mg/kg/day, Day 1, Mean): 3 h
- half-life ([1]; both sexes, Sprague-Dawley, in vivo, SD rat blood, 32.1 mg/kg/day, Day 1, Mean): 408 min
- AUC(0-t) [1, 3]: 982 ng·h/mL
- Cmax [1, 3]: 189 ng/mL
- half-life [1, 4]: 384 min
- AUC(0-t) [1, 4]: 2560 ng·h/mL
- Cmax [1, 4]: 215 ng/mL
- Tmax ([1]; both sexes, Sprague-Dawley, rat, blood, 3.4 mg/kg/day, from start of inhalation dosing, SD rat blood, 3.4 mg/kg/day, Day 1, Mean): 3 h
- Tmax ([1]; both sexes, Sprague-Dawley, rat, blood, 3.4 mg/kg/day, from start of inhalation dosing, SD rat blood, 3.4 mg/kg/day, Day 14, Mean): 4 h
- AUC(0-t) [1, 5]: 7440 ng·h/mL
- Cmax [1, 5]: 735 ng/mL
- AUC(0-t) [1, 6]: 12200 ng·h/mL
- Cmax [1, 6]: 1020 ng/mL
- half-life ([1]; both sexes, Sprague-Dawley, rat, whole blood, 10.8 mg/kg/day, SD rat blood, 10.8 mg/kg/day, Day 1, Mean): 354 min
- half-life [1, 7]: 306 min
- AUC(0-t) [1, 7]: 6750 ng·h/mL
- Cmax [1, 7]: 519 ng/mL
- Tmax ([1]; both sexes, Sprague-Dawley, rat, whole blood, 10.8 mg/kg/day, from start of inhalation dosing, SD rat blood, 10.8 mg/kg/day, Day 14, Mean): 4 h
- tlast ([1]; both, Sprague-Dawley, rat, in vivo, 3.4 mg/kg/day): 25.0 h
- tlast ([1]; both, Sprague-Dawley, rat, in vivo, 10.8 mg/kg/day): 25.0 h
- AUC(0-t) [1, 8]: 1000 ng·h/mL
- Cmax [1, 8]: 202 ng/mL
- AUC(0-t) [1, 9]: 2610 ng·h/mL
- Cmax [1, 9]: 241 ng/mL
- Tmax ([1]; female, Sprague-Dawley, rat, blood, 3.4 mg/kg/day, from start of inhalation dosing, SD rat blood, 3.4 mg/kg/day, Day 1, Female): 3 h
- Tmax ([1]; female, Sprague-Dawley, rat, blood, 3.4 mg/kg/day, from start of inhalation dosing, SD rat blood, 3.4 mg/kg/day, Day 14, Female): 5 h
- half-life [1, 10]: 348 min
- AUC(0-t) [1, 10]: 7270 ng·h/mL
- Cmax [1, 10]: 544 ng/mL
- Tmax ([1]; female, Sprague-Dawley, rat, blood, 10.8 mg/kg/day, from start of inhalation dosing, SD rat blood, 10.8 mg/kg/day, Day 1, Female): 3 h
- tlast ([1]; female, Sprague-Dawley, rat, in vivo, 3.4 mg/kg/day): 25.0 h
- tlast ([1]; female, Sprague-Dawley, rat, in vivo, 10.8 mg/kg/day): 25.0 h
- AUC(0-t) [1, 11]: 9470 ng·h/mL
- Cmax [1, 11]: 936 ng/mL
- AUC(0-t) [1, 12]: 16200 ng·h/mL
- Cmax [1, 12]: 1150 ng/mL
- half-life [1, 13]: 306 min
- AUC(0-t) [1, 13]: 8050 ng·h/mL
- Cmax [1, 13]: 679 ng/mL
- Tmax ([1]; female, Sprague-Dawley, rat, whole blood, 10.8 mg/kg/day, from start of inhalation dosing, SD rat blood, 10.8 mg/kg/day, Day 14, Female): 3 h
- tlast ([1]; from start of inhalation dosing, SD rat blood, 3.4 mg/kg/day, Day 1, Female): 9.0 h
- tlast ([1]; from start of inhalation dosing, SD rat blood, 3.4 mg/kg/day, Day 1, Male): 9.0 h
- tlast ([1]; from start of inhalation dosing, SD rat blood, 3.4 mg/kg/day, Day 1, Mean): 9.0 h
- tlast ([1]; from start of inhalation dosing, SD rat blood, 32.1 mg/kg/day, Day 1, Female): 25.0 h
- tlast ([1]; from start of inhalation dosing, SD rat blood, 32.1 mg/kg/day, Day 1, Male): 25.0 h
- tlast ([1]; from start of inhalation dosing, SD rat blood, 32.1 mg/kg/day, Day 1, Mean): 25.0 h
- tlast ([1]; from start of inhalation dosing, SD rat blood, 32.1 mg/kg/day, Day 14, Female): 25.0 h
- tlast ([1]; from start of inhalation dosing, SD rat blood, 32.1 mg/kg/day, Day 14, Male): 25.0 h
- tlast ([1]; from start of inhalation dosing, SD rat blood, 32.1 mg/kg/day, Day 14, Mean): 25.0 h
- half-life [1, 14]: 360 min
- AUC(0-t) [1, 14]: 2910 ng·h/mL
- Cmax [1, 14]: 370 ng/mL
- Tmax ([1]; male, Sprague Dawley, rat, blood, 10.8 mg/kg/day, from start of inhalation dosing, SD rat blood, 10.8 mg/kg/day, Day 1, Male): 3 h
- tlast ([1]; male, Sprague Dawley, rat, in vivo, 10.8 mg/kg/day): 25.0 h
- AUC(0-t) [1, 15]: 963 ng·h/mL
- Cmax [1, 15]: 177 ng/mL
- half-life [1, 16]: 384 min
- AUC(0-t) [1, 16]: 2500 ng·h/mL
- Cmax [1, 16]: 190 ng/mL
- Tmax ([1]; male, Sprague-Dawley, rat, blood, 3.4 mg/kg/day, from start of inhalation dosing, SD rat blood, 3.4 mg/kg/day, Day 1, Male): 3 h
- Tmax ([1]; male, Sprague-Dawley, rat, blood, 3.4 mg/kg/day, from start of inhalation dosing, SD rat blood, 3.4 mg/kg/day, Day 14, Male): 3 h
- tlast ([1]; male, Sprague-Dawley, rat, in vivo, 3.4 mg/kg/day): 25.0 h
- tlast ([1]; male, Sprague-Dawley, rat, in vivo, 10.8 mg/kg/day): 25.0 h
- AUC(0-t) [1, 17]: 5410 ng·h/mL
- Cmax [1, 17]: 534 ng/mL
- AUC(0-t) [1, 18]: 8230 ng·h/mL
- Cmax [1, 18]: 885 ng/mL
- AUC(0-t) [1, 19]: 5440 ng·h/mL
- Cmax [1, 19]: 359 ng/mL
- Tmax ([1]; male, Sprague-Dawley, rat, whole blood, 10.8 mg/kg/day, from start of inhalation dosing, SD rat blood, 10.8 mg/kg/day, Day 14, Male): 5 h
- AUC in blood accumulation relative to day-1 ([1]; once-daily inhalation for 14 days, except female rats at 10.8 mg/kg/day): 1.5–2.6 fold
- AUC in females higher than males [1, 20]: 1.5–2.5 fold
- Cmax in females higher than males [1, 20]: 1.3–1.9 fold
